Source: PubChem BioAssay AID1963868 (Molecular Pharmacology Branch, DTP, NCI, 2024)

Test system: KRAS PDC tumor spheroids (HUVEC+MSC), viability
Experiment: Anticancer human tumor 254851-301-R-J1-PDC patient-derived colon carcinoma cell line growth inhibition [KRAS2]
Conditions: for viability, T/C: stronger effect = lower value
In short: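 KRAS-mutant tumor cells were grown as spheroids with HUVEC endothelial cells and human MSCs as stroma. Targeted agents were tested alone and with KRAS pathway inhibitors. Doses started at or near clinical Cmax, or 10 microM, descending half-log.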

[1] = curve of first compound, second compound 0.1 µM
[2] = curve of first compound, second compound 0.316 µM
[3] = curve of first compound, second compound 1 µM
[4] = curve of first compound, second compound 3.16 µM
[5] = curve of first compound, second compound 10 µM
[6] = second compound 0.1 µM, first compound 0.0316 µM
[7] = second compound 0.316 µM, first compound 0.0316 µM
[8] = second compound 1 µM, first compound 0.0316 µM
[9] = second compound 3.16 µM, first compound 0.0316 µM
[10] = second compound 10 µM, first compound 0.0316 µM
[11] = curve of first compound, second compound 0.0316 µM
[12] = second compound 0.0316 µM, first compound 0.0316 µM
[13] = second compound 0.0316 µM, first compound 0.1 µM
[14] = second compound 0.0316 µM, first compound 0.316 µM
[15] = second compound 0.0316 µM, first compound 1 µM
[16] = second compound 0.0316 µM, first compound 3.16 µM
[17] = second compound 0.0316 µM, first compound 10 µM
[18] = second compound 0.1 µM, first compound 0.1 µM
[19] = second compound 0.1 µM, first compound 0.316 µM
[20] = second compound 0.1 µM, first compound 1 µM
[21] = second compound 0.1 µM, first compound 3.16 µM
[22] = second compound 0.1 µM, first compound 10 µM
[23] = second compound 0.316 µM, first compound 0.1 µM
[24] = second compound 0.316 µM, first compound 0.316 µM
[25] = second compound 0.316 µM, first compound 1 µM
[26] = second compound 0.316 µM, first compound 3.16 µM
[27] = second compound 0.316 µM, first compound 10 µM
[28] = second compound 1 µM, first compound 0.1 µM
[29] = second compound 1 µM, first compound 0.316 µM
[30] = second compound 1 µM, first compound 1 µM
[31] = second compound 1 µM, first compound 3.16 µM
[32] = second compound 1 µM, first compound 10 µM
[33] = second compound 3.16 µM, first compound 0.1 µM
[34] = second compound 3.16 µM, first compound 0.316 µM
[35] = second compound 3.16 µM, first compound 1 µM
[36] = second compound 3.16 µM, first compound 3.16 µM
[37] = second compound 3.16 µM, first compound 10 µM
[38] = second compound 10 µM, first compound 0.1 µM
[39] = second compound 10 µM, first compound 0.316 µM
[40] = second compound 10 µM, first compound 1 µM
[41] = second compound 10 µM, first compound 3.16 µM
[42] = second compound 10 µM, first compound 10 µM
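Also: spheroids exposed to compounds for seven days before readout.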
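For viability, T/C in this document: 100% = DMSO vehicle control luminescence of the spheroids.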

SMILES: CC(=O)Nc1cccc(-n2c(=O)n(C3CC3)c(=O)c3c(Nc4ccc(I)cc4F)n(C)c(=O)c(C)c32)c1 + CC1OCC2(CCN(c3cnc(Sc4ccnc(N)c4Cl)c(N)n3)CC2)C1N
- IC50 [1]: 4.15 nM
- IC50 [2]: 3.45 nM
- IC50 [3]: 2.18 nM
- IC50 [4]: 0.975 nM
- IC50 [5]: 0.395 nM
- viability, T/C (second compound 0.1 µM, first compound 0.0001 µM): 92.1%
- viability, T/C (second compound 0.1 µM, first compound 0.000316 µM): 100%
- viability, T/C (second compound 0.1 µM, first compound 0.001 µM): 85.7%
- viability, T/C (second compound 0.1 µM, first compound 0.00316 µM): 63%
- viability, T/C (second compound 0.1 µM, first compound 0.01 µM): 10.8%
- viability, T/C [6]: 2.77%
- viability, T/C (second compound 0.316 µM, first compound 0.0001 µM): 98.7%
- viability, T/C (second compound 0.316 µM, first compound 0.000316 µM): 82%
- viability, T/C (second compound 0.316 µM, first compound 0.001 µM): 87.3%
- viability, T/C (second compound 0.316 µM, first compound 0.00316 µM): 53.8%
- viability, T/C (second compound 0.316 µM, first compound 0.01 µM): 5.84%
- viability, T/C [7]: 2.66%
- viability, T/C (second compound 1 µM, first compound 0.0001 µM): 80.7%
- viability, T/C (second compound 1 µM, first compound 0.000316 µM): 79%
- viability, T/C (second compound 1 µM, first compound 0.001 µM): 75%
- viability, T/C (second compound 1 µM, first compound 0.00316 µM): 38%
- viability, T/C (second compound 1 µM, first compound 0.01 µM): 3.61%
- viability, T/C [8]: 1.88%
- viability, T/C (second compound 3.16 µM, first compound 0.0001 µM): 66.2%
- viability, T/C (second compound 3.16 µM, first compound 0.000316 µM): 74.4%
- viability, T/C (second compound 3.16 µM, first compound 0.001 µM): 49.4%
- viability, T/C (second compound 3.16 µM, first compound 0.00316 µM): 4.29%
- viability, T/C (second compound 3.16 µM, first compound 0.01 µM): 2.24%
- viability, T/C [9]: 1.57%
- viability, T/C (second compound 10 µM, first compound 0.0001 µM): 69.1%
- viability, T/C (second compound 10 µM, first compound 0.000316 µM): 59.7%
- viability, T/C (second compound 10 µM, first compound 0.001 µM): 9.76%
- viability, T/C (second compound 10 µM, first compound 0.00316 µM): 2.21%
- viability, T/C (second compound 10 µM, first compound 0.01 µM): 1.43%
- viability, T/C [10]: 1.76%

SMILES: COC(=O)c1ccc2c(C(=Nc3ccc(N(C)C(=O)CN4CCN(C)CC4)cc3)c3ccccc3)c(O)[nH]c2c1 + C=CC(=O)N1CCN(c2nc(OCC3CCCN3C)nc3c2CCN(c2cccc4cccc(C)c24)C3)CC1CC#N
- IC50 [11]: > 10000 nM
- IC50 [1]: > 10000 nM
- IC50 [2]: > 10000 nM
- IC50 [3]: > 10000 nM
- IC50 [4]: 583 nM
- viability, T/C [12]: 93.5%
- viability, T/C [13]: 89.8%
- viability, T/C [14]: 98.9%
- viability, T/C [15]: 87.8%
- viability, T/C [16]: 81.7%
- viability, T/C [17]: 83.3%
- viability, T/C [6]: 95.5%
- viability, T/C [18]: 94.9%
- viability, T/C [19]: 92.3%
- viability, T/C [20]: 83.8%
- viability, T/C [21]: 81.8%
- viability, T/C [22]: 82%
- viability, T/C [7]: 81%
- viability, T/C [23]: 88.5%
- viability, T/C [24]: 86.3%
- viability, T/C [25]: 77.1%
- viability, T/C [26]: 68.1%
- viability, T/C [27]: 77.8%
- viability, T/C [8]: 85.8%
- viability, T/C [28]: 86.2%
- viability, T/C [29]: 86.7%
- viability, T/C [30]: 78%
- viability, T/C [31]: 75.6%
- viability, T/C [32]: 76.3%
- viability, T/C [9]: 70%
- viability, T/C [33]: 65.2%
- viability, T/C [34]: 57.9%
- viability, T/C [35]: 42.3%
- viability, T/C [36]: 7.1%
- viability, T/C [37]: 0.21%

SMILES: CC(=O)OC12COC1CC(O)C1(C)C(=O)C(O)C3=C(C)C(OC(=O)C(O)C(NC(=O)OC(C)(C)C)c4ccccc4)CC(O)(C(OC(=O)c4ccccc4)C21)C3(C)C (centres undefined)
- viability, T/C (compound 0.01 µM): 98.5% [middle of 5 runs]
- viability, T/C (compound 0.0316 µM): 95.8% [middle of 5 runs]
- viability, T/C (compound 0.1 µM): 68.8% [middle of 5 runs]
- viability, T/C (compound 0.316 µM): 42.4% [middle of 5 runs]
- viability, T/C (compound 1 µM): 28.1% [middle of 5 runs]
- viability, T/C (compound 3.16 µM): 25.8% [middle of 5 runs]
- IC50 (curve of compound): 217 nM [middle of 5 runs]

SMILES: COc1cc(Nc2ncc3c(n2)-c2ccc(Cl)cc2C(c2c(F)cccc2OC)=NC3)ccc1C(=O)O + COc1cc2nc(C)nc(NC(C)c3cc(N)cc(C(F)(F)F)c3)c2cc1OC1CCOC1
- IC50 [1]: 88.4 nM
- IC50 [2]: 85.9 nM
- IC50 [3]: 80.7 nM
- IC50 [4]: 77.1 nM
- IC50 [5]: 48.3 nM
- viability, T/C [6]: 77.7%
- viability, T/C [18]: 42%
- viability, T/C [19]: 31.5%
- viability, T/C [20]: 25.1%
- viability, T/C [21]: 14%
- viability, T/C [22]: 9.19%
- viability, T/C [7]: 83.9%
- viability, T/C [23]: 39.8%
- viability, T/C [24]: 30.7%
- viability, T/C [25]: 24.1%
- viability, T/C [26]: 17%
- viability, T/C [27]: 8.65%
- viability, T/C [8]: 77.4%
- viability, T/C [28]: 39.1%
- viability, T/C [29]: 30.1%
- viability, T/C [30]: 24.6%
- viability, T/C [31]: 18.5%
- viability, T/C [32]: 8.42%
- viability, T/C [9]: 74.5%
- viability, T/C [33]: 38.8%
- viability, T/C [34]: 30.2%
- viability, T/C [35]: 25.8%
- viability, T/C [36]: 20.3%
- viability, T/C [37]: 10.9%
- viability, T/C [10]: 58.6%
- viability, T/C [38]: 34.1%
- viability, T/C [39]: 28.9%
- viability, T/C [40]: 25%
- viability, T/C [41]: 22.4%
- viability, T/C [42]: 16.4%

SMILES: Cn1nccc1Nc1nccc(-c2cc3c(s2)C(C)(C)N(CCN2CCOCC2)C3=O)n1 + COc1cc2nc(C)nc(NC(C)c3cc(N)cc(C(F)(F)F)c3)c2cc1OC1CCOC1
- IC50 [1]: 1970 nM
- IC50 [2]: 1810 nM
- IC50 [3]: 1530 nM
- IC50 [4]: 564 nM
- IC50 [5]: 445 nM
- viability, T/C [6]: 101%
- viability, T/C [18]: 97%
- viability, T/C [19]: 82.6%
- viability, T/C [20]: 71.5%
- viability, T/C [21]: 35.9%
- viability, T/C [22]: 3.63%
- viability, T/C [7]: 98.4%
- viability, T/C [23]: 83.2%
- viability, T/C [24]: 77.2%
- viability, T/C [25]: 74.3%
- viability, T/C [26]: 29.1%
- viability, T/C [27]: 3.95%
- viability, T/C [8]: 85.5%
- viability, T/C [28]: 86.7%
- viability, T/C [29]: 72.7%
- viability, T/C [30]: 70%
- viability, T/C [31]: 17.6%
- viability, T/C [32]: 4.11%
- viability, T/C [9]: 87.8%
- viability, T/C [33]: 80.2%
- viability, T/C [34]: 66.5%
- viability, T/C [35]: 35%
- viability, T/C [36]: 4.08%
- viability, T/C [37]: 2.21%
- viability, T/C [10]: 72.2%
- viability, T/C [38]: 71.2%
- viability, T/C [39]: 56.9%
- viability, T/C [40]: 31.1%
- viability, T/C [41]: 2.79%
- viability, T/C [42]: 1.54%

SMILES: O=C(c1cc(Cc2n[nH]c(=O)c3ccccc23)ccc1F)N1CCN(C(=O)C2CC2)CC1 + C=CC(=O)N1CCN(c2nc(OCC3CCCN3C)nc3c2CCN(c2cccc4cccc(C)c24)C3)CC1CC#N
- IC50 [11]: > 10000 nM
- IC50 [1]: > 10000 nM
- IC50 [2]: > 10000 nM
- IC50 [3]: > 10000 nM
- IC50 [4]: > 10000 nM
- viability, T/C [12]: 108%
- viability, T/C [13]: 111%
- viability, T/C [14]: 96%
- viability, T/C [15]: 96.4%
- viability, T/C [16]: 81.5%
- viability, T/C [17]: 84.9%
- viability, T/C [6]: 105%
- viability, T/C [18]: 106%
- viability, T/C [19]: 97.8%
- viability, T/C [20]: 104%
- viability, T/C [21]: 93.5%
- viability, T/C [22]: 92.6%
- viability, T/C [7]: 101%
- viability, T/C [23]: 99.6%
- viability, T/C [24]: 102%
- viability, T/C [25]: 99.7%
- viability, T/C [26]: 98.4%
- viability, T/C [27]: 92.7%
- viability, T/C [8]: 96.8%
- viability, T/C [28]: 98.7%
- viability, T/C [29]: 101%
- viability, T/C [30]: 92%
- viability, T/C [31]: 99.8%
- viability, T/C [32]: 92.1%
- viability, T/C [9]: 67.8%
- viability, T/C [33]: 55.4%
- viability, T/C [34]: 72.5%
- viability, T/C [35]: 60.1%
- viability, T/C [36]: 69.4%
- viability, T/C [37]: 69.4%

SMILES: COC(=O)c1ccc2c(C(=Nc3ccc(N(C)C(=O)CN4CCN(C)CC4)cc3)c3ccccc3)c(O)[nH]c2c1
- viability, T/C (compound 0.0316 µM): 104% [middle of 5 runs]
- viability, T/C (compound 0.1 µM): 99.1% [middle of 5 runs]
- viability, T/C (compound 0.316 µM): 95.2% [middle of 5 runs]
- viability, T/C (compound 1 µM): 97.2% [middle of 5 runs]
- viability, T/C (compound 3.16 µM): 86.5% [middle of 5 runs]
- viability, T/C (compound 10 µM): 95.5% [middle of 5 runs]
- IC50 (curve of compound): > 10000 nM
